Assay results taken from ChEMBL document CHEMBL1687756 (Antimicrob Agents Chemother, 2010).

Tests used:
[1] = Cmax in male dog at 200 mg, sc after 29 days; conditions: in vivo
[2] = Drug level in Beagle dog lymph node axillar at 5 mg/kg administered intramuscularly after 6 months; assay type: ADME, organism-based, Canis lupus familiaris; parameters: dose 5 mg/kg, route intramuscular; conditions: axillary lymph node, im, read-out: Drug uptake
[3] = Drug level in Beagle dog skin at non-injected site at 5 mg/kg, sc after 6 months; assay type: ADME, organism-based, Canis lupus familiaris, Zone of skin; parameters: dose 5 mg/kg, route subcutaneous; conditions: read-out: Drug uptake
[4] = Drug level in male Beagle dog thymus at 400 mg/kg administered intramuscularly after 3 months; assay type: ADME, organism-based, Canis lupus familiaris; parameters: dose 400 mg/kg, route intramuscular; conditions: im, read-out: Drug uptake
[5] = Drug level in male Beagle dog thymus at 200 mg/kg, sc after 3 months; assay type: ADME, organism-based, Canis lupus familiaris; parameters: dose 200 mg/kg, route subcutaneous; conditions: read-out: Drug uptake
[6] = Ratio of drug level in lymph node iliac to plasma in Beagle dog at 5 mg/kg, sc after 1 month; assay type: ADME, organism-based, Canis lupus familiaris; parameters: dose 5 mg/kg, route subcutaneous
[7] = Ratio of drug level in thymus to plasma in male Beagle dog at 200 mg/kg administered intramuscularly after 3 months; assay type: ADME, organism-based, Canis lupus familiaris; parameters: dose 200 mg/kg, route intramuscular; conditions: im
[8] = AUC (0 to last) in male dog at 400 mg administered intramuscularly after 85 days; conditions: plasma, im
[9] = Cmax in female dog at 400 mg administered intramuscularly after 85 days; conditions: in vivo, im
[10] = Ratio of drug level in thymus to plasma in male Beagle dog at 400 mg/kg, sc after 1 month; assay type: ADME, organism-based, Canis lupus familiaris; parameters: dose 400 mg/kg, route subcutaneous
[11] = Plasma concentration in Beagle dog at 5 mg/kg administered intramuscularly after 1 month; assay type: ADME, organism-based, Canis lupus familiaris; parameters: dose 5 mg/kg, route intramuscular; conditions: im
[12] = Drug level in Beagle dog spleen at 5 mg/kg administered intramuscularly after 6 months; assay type: ADME, organism-based, Canis lupus familiaris; parameters: dose 5 mg/kg, route intramuscular; conditions: im, read-out: Drug uptake
[13] = Drug level in female Beagle dog spleen at 400 mg/kg, sc after 3 months; assay type: ADME, organism-based, Canis lupus familiaris; parameters: dose 400 mg/kg, route subcutaneous; conditions: read-out: Drug uptake
[14] = Drug level in Beagle dog skin at non-injected site at 5 mg/kg administered intramuscularly after 3 months; assay type: ADME, organism-based, Canis lupus familiaris, Zone of skin; parameters: dose 5 mg/kg, route intramuscular; conditions: im, read-out: Drug uptake
[15] = Ratio of drug level in lymph node mandibular to plasma in Beagle dog at 5 mg/kg, sc after 3 months; assay type: ADME, organism-based, Canis lupus familiaris; parameters: dose 5 mg/kg, route subcutaneous
[16] = Plasma concentration in female Beagle dog at 200 mg/kg administered intramuscularly after 1 month; assay type: ADME, organism-based, Canis lupus familiaris; parameters: dose 200 mg/kg, route intramuscular; conditions: im, read-out: Drug uptake
[17] = Ratio of drug level in thymus to plasma in female Beagle dog at 400 mg/kg administered intramuscularly after 3 months; assay type: ADME, organism-based, Canis lupus familiaris; parameters: dose 400 mg/kg, route intramuscular; conditions: im
[18] = Ratio of drug level in lymph node popliteal to plasma in Beagle dog at 5 mg/kg, sc after 6 months; assay type: ADME, organism-based, Canis lupus familiaris; parameters: dose 5 mg/kg, route subcutaneous
[19] = Drug level in Beagle dog liver at 5 mg/kg administered intramuscularly after 6 months; assay type: ADME, organism-based, Canis lupus familiaris; parameters: dose 5 mg/kg, route intramuscular; conditions: im, read-out: Drug uptake
[20] = Drug level in female Beagle dog spleen at 200 mg/kg, sc after 1 month; assay type: ADME, organism-based, Canis lupus familiaris; parameters: dose 200 mg/kg, route subcutaneous; conditions: read-out: Drug uptake
[21] = Tmax in female dog at 400 mg administered intramuscularly after 29 days; conditions: in vivo, im
[22] = Drug level in Beagle dog muscle at injected site at 5 mg/kg, sc after 6 months; assay type: ADME, organism-based, Canis lupus familiaris, Muscle tissue; parameters: dose 5 mg/kg, route subcutaneous; conditions: read-out: Drug uptake
[23] = Drug level in male Beagle dog thymus at 200 mg/kg administered intramuscularly after 3 months; assay type: ADME, organism-based, Canis lupus familiaris; parameters: dose 200 mg/kg, route intramuscular; conditions: im, read-out: Drug uptake
[24] = Ratio of drug level in thymus to plasma in male Beagle dog at 200 mg/kg, sc after 3 months; assay type: ADME, organism-based, Canis lupus familiaris; parameters: dose 200 mg/kg, route subcutaneous
[25] = Ratio of drug level in lymph node iliac to plasma in Beagle dog at 5 mg/kg, sc after 3 months; assay type: ADME, organism-based, Canis lupus familiaris; parameters: dose 5 mg/kg, route subcutaneous
[26] = Tmax in female dog at 200 mg administered intramuscularly after 29 days; conditions: in vivo, im
[27] = Drug level in Beagle dog skin at injected site at 5 mg/kg administered intramuscularly after 3 months; assay type: ADME, organism-based, Canis lupus familiaris, Zone of skin; parameters: dose 5 mg/kg, route intramuscular; conditions: im, read-out: Drug uptake
[28] = Drug level in Beagle dog muscle at non-injected site at 5 mg/kg administered intramuscularly after 3 months; assay type: ADME, organism-based, Canis lupus familiaris, Muscle tissue; parameters: dose 5 mg/kg, route intramuscular; conditions: im, read-out: Drug uptake
Canis familiaris [29] = experiment: Toxicity in Beagle dog assessed as inflammatory signs at 20 mg/kg, sc after 3 months; assay type: organism-based, Canis lupus familiaris; parameters: dose 20 mg/kg, route subcutaneous; conditions: in vivo, 2191.5 h
[30] = Drug level in Beagle dog muscle at injected site at 5 mg/kg, sc after 3 months; assay type: ADME, organism-based, Canis lupus familiaris, Muscle tissue; parameters: dose 5 mg/kg, route subcutaneous; conditions: read-out: Drug uptake
[31] = Ratio of drug level in spleen to plasma in female Beagle dog at 200 mg/kg administered intramuscularly after 1 month; assay type: ADME, organism-based, Canis lupus familiaris; parameters: dose 200 mg/kg, route intramuscular; conditions: im
[32] = Plasma concentration in male Beagle dog at 200 mg/kg, sc after 1 month; assay type: ADME, organism-based, Canis lupus familiaris; parameters: dose 200 mg/kg, route subcutaneous
[33] = Drug level in male Beagle dog spleen at 200 mg/kg, sc after 3 months; assay type: ADME, organism-based, Canis lupus familiaris; parameters: dose 200 mg/kg, route subcutaneous; conditions: read-out: Drug uptake
[34] = Drug level in Beagle dog lymph node axillar at 5 mg/kg administered intramuscularly after 3 months; assay type: ADME, organism-based, Canis lupus familiaris; parameters: dose 5 mg/kg, route intramuscular; conditions: axillary lymph node, im, read-out: Drug uptake
[35] = Drug level in Beagle dog spleen at 5 mg/kg administered intramuscularly after 3 months; assay type: ADME, organism-based, Canis lupus familiaris; parameters: dose 5 mg/kg, route intramuscular; conditions: im, read-out: Drug uptake
Canis familiaris [36] = experiment: Toxicity in Beagle dog assessed as abscess formation at 20 mg/kg, sc after 3 months; assay type: organism-based, Canis lupus familiaris; parameters: dose 20 mg/kg, route subcutaneous; conditions: in vivo, 2191.5 h
[37] = Ratio of drug level in spleen to plasma in female Beagle dog at 400 mg/kg, sc after 3 months; assay type: ADME, organism-based, Canis lupus familiaris; parameters: dose 400 mg/kg, route subcutaneous
[38] = Drug level in Beagle dog thymus at 5 mg/kg administered intramuscularly after 3 months; assay type: ADME, organism-based, Canis lupus familiaris; parameters: dose 5 mg/kg, route intramuscular; conditions: im, read-out: Drug uptake
[39] = AUC (0 to last) in Beagle dog at 5 mg/kg administered intramuscularly after 184 days; assay type: ADME, organism-based, Canis lupus familiaris; parameters: dose 5 mg/kg, route intramuscular, time 0 - last; conditions: plasma, im
[40] = Plasma concentration in male Beagle dog at 200 mg/kg, sc after 3 months; assay type: ADME, organism-based, Canis lupus familiaris; parameters: dose 200 mg/kg, route subcutaneous
[41] = Ratio of drug level in thymus to plasma in male Beagle dog at 200 mg/kg, sc after 1 month; assay type: ADME, organism-based, Canis lupus familiaris; parameters: dose 200 mg/kg, route subcutaneous
[42] = Ratio of drug level in thymus to plasma in female Beagle dog at 200 mg/kg administered intramuscularly after 1 month; assay type: ADME, organism-based, Canis lupus familiaris; parameters: dose 200 mg/kg, route intramuscular; conditions: im
[43] = Drug level in Beagle dog lymph node popliteal at 5 mg/kg administered intramuscularly after 6 months; assay type: ADME, organism-based, Canis lupus familiaris; parameters: dose 5 mg/kg, route intramuscular; conditions: im, read-out: Drug uptake
[44] = Drug level in Beagle dog lymph node popliteal at 5 mg/kg, sc after 3 months; assay type: ADME, organism-based, Canis lupus familiaris; parameters: dose 5 mg/kg, route subcutaneous; conditions: read-out: Drug uptake
[45] = Ratio of drug level in liver to plasma in Beagle dog at 5 mg/kg, sc after 3 months; assay type: ADME, organism-based, Canis lupus familiaris; parameters: dose 5 mg/kg, route subcutaneous
Canis familiaris [46] = experiment: Toxicity in Beagle dog assessed as inflammatory signs at 20 mg/kg administered intramuscularly after 3 months; assay type: organism-based, Canis lupus familiaris; parameters: dose 20 mg/kg, route intramuscular; conditions: in vivo, im, 2191.5 h
[47] = Ratio of drug level in spleen to plasma in female Beagle dog at 400 mg/kg, sc after 1 month; assay type: ADME, organism-based, Canis lupus familiaris; parameters: dose 400 mg/kg, route subcutaneous
[48] = Drug level in female Beagle dog spleen at 400 mg/kg administered intramuscularly after 3 months; assay type: ADME, organism-based, Canis lupus familiaris; parameters: dose 400 mg/kg, route intramuscular; conditions: im, read-out: Drug uptake
Canis familiaris [49] = experiment: Tmax in Beagle dog at 5 mg/kg, sc after 184 days; assay type: ADME, organism-based, Canis lupus familiaris; parameters: dose 5 mg/kg, route subcutaneous; conditions: in vivo, 4416 h
[50] = Plasma concentration in Beagle dog at 5 mg/kg, sc after 1 month; assay type: ADME, organism-based, Canis lupus familiaris; parameters: dose 5 mg/kg, route subcutaneous
[51] = Drug level in female Beagle dog spleen at 400 mg/kg administered intramuscularly after 1 month; assay type: ADME, organism-based, Canis lupus familiaris; parameters: dose 400 mg/kg, route intramuscular; conditions: im, read-out: Drug uptake
[52] = Ratio of drug level in lymph node iliac to plasma in Beagle dog at 5 mg/kg, sc after 6 months; assay type: ADME, organism-based, Canis lupus familiaris; parameters: dose 5 mg/kg, route subcutaneous
[53] = Ratio of drug level in lymph node axillar to plasma in Beagle dog at 5 mg/kg, sc after 6 months; assay type: ADME, organism-based, Canis lupus familiaris; parameters: dose 5 mg/kg, route subcutaneous; conditions: axillary lymph node/plasma
[54] = Drug level in Beagle dog skin at injected site at 5 mg/kg administered intramuscularly after 6 months; assay type: ADME, organism-based, Canis lupus familiaris, Zone of skin; parameters: dose 5 mg/kg, route intramuscular; conditions: im, read-out: Drug uptake
[55] = Drug level in female Beagle dog thymus at 200 mg/kg, sc after 3 months; assay type: ADME, organism-based, Canis lupus familiaris; parameters: dose 200 mg/kg, route subcutaneous; conditions: read-out: Drug uptake

Cmax [1]: 119 ng/mL
concentration at 4383 h [2]: 12.2 ng/g
concentration at 4383 h [3]: 13.3 ng/g
concentration at 2191.5 h [4]: 76 ng/g
concentration at 2191.5 h [5]: 84.2 ng/g
Kp at 730.5 h [6]: 3.9
Kp at 2191.5 h [7]: 3.8
AUC(0-t) at 2040 h [8]: 281 µg·h/mL
Cmax [9]: 5260 ng/mL
Kp at 730.5 h [10]: 2.9
concentration at 730.5 h [11]: 11.3 ng/mL
concentration at 4383 h [12]: < 5 ng/g
concentration at 2191.5 h [13]: 67.5 ng/g
concentration at 2191.5 h [14]: 12.4 ng/g
Kp at 2191.5 h [15]: 4
concentration at 730.5 h [16]: 61 ng/g
Kp at 2191.5 h [17]: 4.9
Kp at 4383 h [18]: 4.3
concentration at 4383 h [19]: 11.6 ng/g
concentration at 730.5 h [20]: 14.5 ng/g
Tmax [21]: 8.3 h
concentration at 4383 h [22]: 48 ng/g
concentration at 2191.5 h [23]: 34.4 ng/g
Kp at 2191.5 h [24]: 5.9
Kp at 2191.5 h [25]: 5.2
Tmax [26]: 4.6 h
concentration at 2191.5 h [27]: 16.7 ng/g
concentration at 2191.5 h [28]: 84.1 ng/g
concentration at 2191.5 h [30]: 467 ng/g
Kp at 730.5 h [31]: 2.3
concentration at 730.5 h [32]: 95 ng/mL
concentration at 2191.5 h [33]: 36.2 ng/g
concentration at 2191.5 h [34]: 25.5 ng/g
concentration at 2191.5 h [35]: < 5 ng/g
Kp at 2191.5 h [37]: 1.9
concentration at 2191.5 h [38]: 14.7 ng/g
AUC(0-t) at 4416 h [39]: 39.4 µg·h/mL
concentration at 2191.5 h [40]: 15.2 ng/mL
Kp at 730.5 h [41]: 6
Kp at 730.5 h [42]: 5.7
concentration at 4383 h [43]: 30.7 ng/g
concentration at 2191.5 h [44]: 26.8 ng/g
Kp at 2191.5 h [45]: 14
Kp at 730.5 h [47]: 2.5
concentration at 2191.5 h [48]: 46.1 ng/g
Tmax (Canis familiaris [49]): 144 h
concentration at 730.5 h [50]: 16.8 ng/mL
concentration at 730.5 h [51]: 311 ng/g
Kp at 4383 h [52]: 7.7
Kp at 4383 h [53]: 6.7
concentration at 4383 h [54]: 9.5 ng/g
concentration at 2191.5 h [55]: 105 ng/g
Compound: Cc1cc(/C=C/C#N)cc(C)c1Nc1ccnc(Nc2ccc(C#N)cc2)n1 [RILPIVIRINE]
Activity (Canis familiaris [29]): Non-toxic
Activity (Canis familiaris [36]): Non-toxic
Activity (Canis familiaris [46]): Non-toxic
